In this assay the test system is patients diagnosed with Alzheimer's disease. Nature of the assay: Mini Mental State Examination (MMSE) performed quarterly in a blinded, placebo-controlled study of lithium microdoses. Format: in vivo, human. From the text: Patients clinically diagnosed with Alzheimer's disease by the DSM-IV and NINCDS-ADRDA criteria, and under treatment. The patients were selected by the Mini Mental State Examination (MMSE), which is a questionnaire asked to the patient at each visit, which has a maximum score of 30 points. The Mini-Mental State Examination (MMSE) was designed to be a clinical practice assessment of change in the cognitive status in geriatric patients (Folstein et al, 1975). It examines temporal and spatial orientation, short-term memory (or immediate attention) and recall, calculation, apraxia, and language and visual-spatial skills. It can be used as a screening test for cognitive impairment or as a cognitive assessment of bedside. The Portuguese version of the MMSE (Bertolucci et al, 1994) was considered reliable and adequate for screening and monitoring of ambulatory elderly (Lawrence et al, 2008).
The MMSE includes 11 items, divided into 2 sections. The first requires verbal answers to questions of orientation, memory and attention, the second to questions of reading and writing skills, and it evaluates the skills of appointment, follow verbal and written commands, writing a sentence and copying a drawing (polygons) (Folstein et al, 1975). The cutoff point most often used to indicate a cognitive impairment that deserves further investigation is 24. […] The cutoff point is often adjusted for the education level because a single cut can lose cases among persons with more education, and generate false positives among those with less education. […] Some Brazilian authors studied the measuring characteristics of the scale. Thus, to evaluate the cognitive performance of a population seeking medical screening service of a hospital, Bertolucci applied the MMSE in 530 individuals. We found distinct cutoff points for the diagnosis of cognitive decline, according to the level of education: 13 for illiterates, 18 for low and middle levels of education and 26 for high level of education, with a sensitivity of 82.4%, 75.6% and 80%, and specificity of 97.5%, 96.6% and 95.6%, respectively (Bertolucci et al, 1994). The MMSE was the parameter chosen for inclusion and monitoring of patients of the search for being a test performed on all patients in this clinic and for being a cognitive assessment scale that is practical and useful in the investigation of patients with dementia risk, as in the case of elderly (Almeida, 1998), and it is prescriptive by use and the criteria for dispensing medications adopted by the Ministry of Health. The fact that all medical professionals involved in the evaluation of patients are fully trained and qualified in applying the MMSE was also relevant for this choice. The inclusion of a second test could generate a methodological error that is not measurable. The patients were diagnosed by a neurologist, psychiatrist or geriatrician as suffering from dementia due to Alzheimer's disease, according to the criteria previously mentioned. Patients must present MMSE score equal to or greater than 12 for patients over 4 years of education and greater than or equal to 9 for patients with up to 4 years of education. (Almeida, 1998).
In this preferred embodiment of the invention, the drug tested was the lithium gluconate in a dose of 8.140 mg in 2 mL of solution, which corresponds to 0.28 mg or 0.04 mMol of the metal administered sublingually. Two presentations were used: one containing the lithium gluconate and other containing placebo (anhydrous glucose and purified water). Both presentations were differentiated by a label existing in a group, placebo or lithium, unknown by researchers and by the executors of the MMSE. The patients were selected in a blinded fashion in both groups, with and without stamp by attendance order, being the first with the seal, alternating until the last patient. Formulations were also evaluated with lithium carbonate, respecting the dose of 0.28 mg of metal per dose. […]

With `O=C([O-])[C@H](O)[C@@H](O)[C@H](O)[C@H](O)CO.[Li+]` [Lithium, lithium gluconate], the “MMSE scores vs control by age group” value runs as follows: (61-70 years, F1,62=8.487, p=0.0053, Bonferroni test not significant) “significant differences in the treatment factor”; (71-80 years, treatment factor F1,302=29.6, p<0.0001) “stable maintenance of these values”; (>80 years, treatment factor F1,225=19.53, p<0.0001) “better scores on the MMSE compared to control subjects”. Further, the “Evolution of MMSE scores in quarterly reviews” value (all participants, six quarters, treatment factor F1,614=65.81, p<0.0001 vs control) is reported as “maintenance of these scores”. The MMSE score (first quarter of treatment, 0.28 mg lithium metal per dose, sublingual, P<0.01 vs control) was determined as 20.57±0.66; the MMSE score (quarter 0, immediately before inclusion in the protocol (baseline), n=56, P=0.17 vs control) is 19±0.63; the MMSE score (quarter 5 (end of study), 0.28 mg lithium metal per dose, sublingual, P<0.001 vs control) was 20±0.9. Further, under “treated men vs treated women, p=0.4448 and p=0.9786”, the “Influence of gender on MMSE scores in the treated group” value was “no significant differences in treatment and time factors”.

(Values after patent US20130156869A1, “PHARMACEUTICAL COMPOSITION FOR THE TREATMENT OF ALZHEIMER'S DISEASE, METHOD FOR PRODUCING SAME AND USE THEREOF” (Funddacao Arnaldo Vieira de Carvalho, priority 2010, published 2013).)
